Results as given in patent US20110081315A1, “NOVEL MACROCYCLIC INHIBITORS OF HEPATITIS C VIRUS REPLICATION” (INTERMUNE, INC., priority 2009, published 2011).
pEC50, pIC50: −log10 of the molar value.

Tests used:
NS3/NS4 complexes = NS3/NS4 complexes (Hepatitis C virus genotype 1a, UniProt P27958); test: NS3/NS4 inhibition assay (IC50); type: biochemical; settings: NS3/NS4 activity; 23° C., 25 μM NS4A peptide
Summary of the method: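 NS3/NS4 protease complexes were formed and compound inhibitory concentrations (IC50) measured at ambient temperature (23° C.) in 50 mM Tris-HCl, pH 7.5, with 15% glycerol, 0.6 mM LDAO, 25 μM NS4A peptide and 10 mM DTT. Replicon EC50 values come from a standard HCV replicon cell assay.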

hepatitis C replicon = hepatitis C replicon EC50 assay; type: cell-based; settings: Hepatitis C virus; hepatitis C replicon; read-out: EC50
Summary of the method: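 Replicon EC50 determined per a referenced patent protocol; assays run at ambient temperature (23° C.) in 50 mM Tris-HCl pH 7.5 with 15% glycerol, 0.6 mM LDAO, 25 μM NS4A peptide and 10 mM DTT.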

Chain of NS3/NS4 complexes (P27958 1027-1657, one chain of several): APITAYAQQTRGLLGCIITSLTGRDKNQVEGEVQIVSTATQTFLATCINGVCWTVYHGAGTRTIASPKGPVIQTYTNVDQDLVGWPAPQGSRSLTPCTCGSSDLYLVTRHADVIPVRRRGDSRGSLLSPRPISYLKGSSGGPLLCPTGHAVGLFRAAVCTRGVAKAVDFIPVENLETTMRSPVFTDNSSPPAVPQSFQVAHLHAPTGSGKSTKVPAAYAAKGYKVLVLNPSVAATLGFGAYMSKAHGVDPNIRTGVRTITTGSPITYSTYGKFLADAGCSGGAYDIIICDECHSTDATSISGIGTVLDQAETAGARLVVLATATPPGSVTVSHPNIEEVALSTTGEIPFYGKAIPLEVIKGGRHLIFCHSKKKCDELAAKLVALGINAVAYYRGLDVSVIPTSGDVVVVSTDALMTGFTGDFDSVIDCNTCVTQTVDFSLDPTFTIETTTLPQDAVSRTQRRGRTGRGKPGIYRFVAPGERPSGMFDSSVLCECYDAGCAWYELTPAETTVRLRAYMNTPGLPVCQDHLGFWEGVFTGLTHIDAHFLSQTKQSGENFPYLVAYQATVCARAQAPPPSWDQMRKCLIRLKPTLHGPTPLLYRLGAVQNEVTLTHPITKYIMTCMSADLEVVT

Compound | pIC50 (NS3/NS4 complexes) | pEC50 (hepatitis C replicon)
CC(C)n1c(O[C@@H]2C[C@H]3C(=O)N[C@]4(C(=O)NS(=O)(=O)N(C)C)C[C@H]4/C=C\CCCCC[C@H](NC(=O)OC(C)(C)C)C(=O)N3C2)nc2c(-c3csc(-c4ccccc4)n3)cccc21 [Compound 1740] | > 8.00 | 7.00 to 8.00
CC(C)n1c(O[C@@H]2C[C@H]3C(=O)N[C@]4(C(=O)NS(=O)(=O)C5(C)CC5)C[C@H]4/C=C\CCCCC[C@H](Nc4ccccc4)C(=O)N3C2)nc2c(-c3cccc(C(=O)N(C)C)c3)cccc21 [Compound 248] | > 8.00 | 7.00 to 8.00
CN(C)S(=O)(=O)NC(=O)[C@@]12C[C@H]1/C=C\CCCCC[C@H](NC(=O)OC(C)(C)C)C(=O)N1C[C@H](Oc3nc4ccccc4nc3-c3ccccc3)C[C@H]1C(=O)N2 [Compound 306] | > 8.00 | 7.00 to 8.00
CC(C)n1c(O[C@@H]2C[C@H]3C(=O)N[C@]4(C(=O)NS(=O)(=O)C5(C)CC5)C[C@H]4/C=C\CCCCC[C@H](NC(=O)OC(C)(C)C)C(=O)N3C2)nc2c(-c3nc(C4CC4)cs3)cccc21 [Compound 1777] | > 8.00 | > 8.00
CCc1csc(-c2cccc3c2nc(O[C@@H]2C[C@H]4C(=O)N[C@]5(C(=O)NS(=O)(=O)N(C)C)C[C@H]5/C=C\CCCCC[C@H](NC(=O)OC(C)(C)C)C(=O)N4C2)n3C(C)C)n1 [Compound 292] | > 8.00 | > 8.00
CC(C)n1c(O[C@@H]2C[C@H]3C(=O)N[C@]4(C(=O)NS(=O)(=O)C5(C)CC5)C[C@H]4/C=C\CCCCC[C@H](NC(=O)OC(C)(C)C)C(=O)N3C2)nc2c(-c3csc(-c4cc(F)cc(F)c4)n3)cccc21 [Compound 1703] | > 8.00 | 7.00 to 8.00
CC(C)n1c(O[C@@H]2C[C@H]3C(=O)N[C@]4(C(=O)NS(=O)(=O)N(C)C)C[C@H]4/C=C\CCCCC[C@H](NC(=O)OC(C)(C)C)C(=O)N3C2)nc2c(NC(=O)OCc3ccccc3)cccc21 [Compound 1428] | > 8.00 | > 8.00
CC1(S(=O)(=O)NC(=O)[C@@]23C[C@H]2/C=C\CCCCC[C@H](Nc2ccccc2)C(=O)N2C[C@H](n4ncc(-c5ccccc5)n4)C[C@H]2C(=O)N3)CC1 [Compound 1503] | > 8.00 | < 7.00
CC(C)n1c(O[C@@H]2C[C@H]3C(=O)N[C@]4(C(=O)NS(=O)(=O)N(C)C)C[C@H]4/C=C\CCCCC[C@H](NC(=O)OC(C)(C)C)C(=O)N3C2)nc2c(-c3csc(C(C)(C)C)n3)cccc21 [Compound 1743] | > 8.00 | 7.00 to 8.00
CC(C)n1c(O[C@@H]2C[C@H]3C(=O)N[C@]4(C(=O)NS(=O)(=O)N(C)C)C[C@H]4/C=C\CCCCC[C@H](NC(=O)OC(C)(C)C)C(=O)N3C2)nc2c(-c3nccs3)cccc21 [Compound 226] | > 8.00 | > 8.00
CC(C)n1c(O[C@@H]2C[C@H]3C(=O)N[C@]4(C(=O)NS(=O)(=O)C5(C)CC5)C[C@H]4/C=C\CCCCC[C@H](NC(=O)OC(C)(C)C)C(=O)N3C2)nc2c(-c3nc4c(s3)CCC4)cccc21 [Compound 1765] | > 8.00 | > 8.00
Cc1oc(-c2cccc3c2nc(O[C@@H]2C[C@H]4C(=O)N[C@]5(C(=O)NS(=O)(=O)C6(C)CC6)C[C@H]5/C=C\CCCCC[C@H](NC(=O)OC(C)(C)C)C(=O)N4C2)n3C(C)C)nc1Cc1ccccc1 [Compound 1215] | > 8.00 | > 8.00
CC(C)n1c(O[C@@H]2C[C@H]3C(=O)N[C@]4(C(=O)NS(=O)(=O)C5(C)CC5)C[C@H]4/C=C\CCCCC[C@H](NC(=O)OC(C)(C)C)C(=O)N3C2)nc2c(-c3nc(C4CCCCC4)cs3)cccc21 [Compound 1769] | > 8.00 | > 8.00
CC(C)n1c(O[C@@H]2C[C@H]3C(=O)N[C@]4(C(=O)NS(=O)(=O)C5(C)CC5)C[C@H]4/C=C\CCCCC[C@H](NC(=O)OC(C)(C)C)C(=O)N3C2)nc2c(-c3nc(C4CCC4)cs3)cccc21 [Compound 1771] | > 8.00 | > 8.00
CCn1c(O[C@@H]2C[C@H]3C(=O)N[C@]4(C(=O)NS(=O)(=O)N(C)C)C[C@H]4/C=C\CCCCC[C@H](NC(=O)OC(C)(C)C)C(=O)N3C2)nc2c(-c3nc(C(C)C)c(C)o3)cccc21 [Compound 1204] | > 8.00 | > 8.00
CCOC(=O)Nc1cccc2c1nc(O[C@@H]1C[C@H]3C(=O)N[C@]4(C(=O)NS(=O)(=O)N(C)C)C[C@H]4/C=C\CCCCC[C@H](NC(=O)OC(C)(C)C)C(=O)N3C1)n2C(C)C [Compound 1427] | > 8.00 | > 8.00

Compound | pIC50 (NS3/NS4 complexes) | pEC50 (hepatitis C replicon)
CN(C)S(=O)(=O)NC(=O)[C@@]12C[C@H]1/C=C\CCCCC[C@H](NC(=O)OC(C)(C)C)C(=O)N1C[C@H](Oc3nc4ccccc4n3C3CC3)C[C@H]1C(=O)N2 [Compound 205] | > 8.00 | > 8.00
CC(C)n1c(O[C@@H]2C[C@H]3C(=O)N[C@]4(C(=O)NS(=O)(=O)N(C)C)C[C@H]4/C=C\CCCCC[C@H](NC(=O)OC(C)(C)C)C(=O)N3C2)nc2c(-c3nc(C4CCCC4)cs3)cccc21 [Compound 293] | > 8.00 | 7.00 to 8.00
COc1cccc2c1nc(O[C@@H]1C[C@H]3C(=O)N[C@]4(C(=O)NS(=O)(=O)C5(C)CC5)C[C@H]4/C=C\CCCCC[C@H](Nc4ccccc4)C(=O)N3C1)n2C(C)C [Compound 285] | > 8.00 | > 8.00
CC(C)n1c(O[C@@H]2C[C@H]3C(=O)N[C@]4(C(=O)NS(=O)(=O)N(C)C)C[C@H]4/C=C\CCCCC[C@H](NC(=O)OC(C)(C)C)C(=O)N3C2)nc2c(-c3nc(Cc4ccccc4Cl)cs3)cccc21 [Compound 1760] | > 8.00 | 7.00 to 8.00
COc1ccc2c(O[C@@H]3C[C@H]4C(=O)N[C@]5(C(=O)NS(=O)(=O)C6(C)CC6)C[C@H]5/C=C\CCCCC[C@H](Nc5cccc(C(=O)N6CCN(c7ccccc7C)CC6)c5)C(=O)N4C3)cc(-c3nc(C(C)C)cs3)nc2c1C [Compound 118] | > 8.00 | 7.00 to 8.00
Cc1ccc(Cc2csc(-c3cccc4c3nc(O[C@@H]3C[C@H]5C(=O)N[C@]6(C(=O)NS(=O)(=O)C7(C)CC7)C[C@H]6/C=C\CCCCC[C@H](NC(=O)OC(C)(C)C)C(=O)N5C3)n4C(C)C)n2)cc1 [Compound 1719] | > 8.00 | > 8.00
COc1ccc2c(O[C@@H]3C[C@H]4C(=O)N[C@]5(C(=O)NS(=O)(=O)C6(C)CC6)C[C@H]5/C=C\CCCCC[C@H](Nc5cccc(C(=O)N6CCOCC6Cc6ccccc6)c5)C(=O)N4C3)cc(-c3nc(C(C)C)cs3)nc2c1C (stereo partly shown) [Compound 122] | > 8.00 | 7.00 to 8.00
CC(C)n1c(O[C@@H]2C[C@H]3C(=O)N[C@]4(C(=O)NS(=O)(=O)C5(C)CC5)C[C@H]4/C=C\CCCCC[C@H](Nc4ccccc4)C(=O)N3C2)nc2c(-c3cccc(F)c3)cccc21 [Compound 239] | > 8.00 | 7.00 to 8.00
Cc1cnc(-c2cccc3c2nc(O[C@@H]2C[C@H]4C(=O)N[C@]5(C(=O)NS(=O)(=O)N(C)C)C[C@H]5/C=C\CCCCC[C@H](NC(=O)OC(C)(C)C)C(=O)N4C2)n3C(C)C)s1 [Compound 229] | > 8.00 | > 8.00
Cc1nc(-c2cccc3c2nc(O[C@@H]2C[C@H]4C(=O)N[C@]5(C(=O)NS(=O)(=O)C6CC6)C[C@H]5/C=C\CCCCC[C@H](NC(=O)OC(C)(C)C)C(=O)N4C2)n3C(C)C)sc1C [Compound 217] | > 8.00 | > 8.00
CC(C)n1c(O[C@@H]2C[C@H]3C(=O)N[C@]4(C(=O)NS(=O)(=O)N(C)C)C[C@H]4/C=C\CCCCC[C@H](NC(=O)OC(C)(C)C)C(=O)N3C2)nc2c(C(=O)NCc3nccs3)cccc21 [Compound 1222] | > 8.00 | > 8.00
CC(C)n1c(O[C@@H]2C[C@H]3C(=O)N[C@]4(C(=O)NS(=O)(=O)C5(C)CC5)C[C@H]4/C=C\CCCCC[C@H](NC(=O)OC(C)(C)C)C(=O)N3C2)nc2ncccc21 [Compound 1779] | > 8.00 | 7.00 to 8.00
CC(C)n1c(O[C@@H]2C[C@H]3C(=O)N[C@]4(C(=O)NS(=O)(=O)N(C)C)C[C@H]4/C=C\CCCCC[C@H](NC(=O)OC(C)(C)C)C(=O)N3C2)nc2c(-c3nc(Cc4ccc(F)cc4)cs3)cccc21 [Compound 1759] | > 8.00 | > 8.00
CC(C)n1c(O[C@@H]2C[C@H]3C(=O)N[C@]4(C(=O)NS(=O)(=O)C5(C)CC5)C[C@H]4/C=C\CCCCC[C@H](Nc4ccccc4)C(=O)N3C2)nc2c(-c3ccc(F)c(C(F)(F)F)c3)cccc21 [Compound 246] | > 8.00 | < 7.00
CC(C)n1c(O[C@@H]2C[C@H]3C(=O)N[C@]4(C(=O)NS(=O)(=O)N(C)C)C[C@H]4/C=C\CCCCC[C@H](NC(=O)OC(C)(C)C)C(=O)N3C2)nc2c(NC(N)=O)cccc21 [Compound 1425] | > 8.00 | 7.00 to 8.00
CC(C)Cc1nc2ccccc2nc1O[C@@H]1C[C@H]2C(=O)N[C@]3(C(=O)NS(=O)(=O)N(C)C)C[C@H]3/C=C\CCCCC[C@H](NC(=O)OC(C)(C)C)C(=O)N2C1 [Compound 307] | > 8.00 | 7.00 to 8.00
